These results are taken from PMC9783648, “Comparative Analysis of Aristolochic Acids in Aristolochia Medicinal Herbs and Evaluation of Their Toxicities” (Toxins, 2022).

For orientation: IC50 means the concentration that gives 50% inhibition.

Where two headings read alike, the source gives them in different places.

Data set [1] is described as follows: Cytotoxicity assay, MTT method. The data set is classed as cell-based, Human. As to conditions: human, HepG2, MTT, 72 h incubation, n = 3. The procedure: (§1) The cytotoxicity of the compounds to HepG2 was determined using the MTT method. First, the cells were transferred from the culture dish to a centrifuge tube, and centrifuged for 5 min (at 1000 r/min). After discarding the supernatant, the tumor cells were cultured in a complete medium containing 15% fetal bovine serum at 37 C, 5% CO2, and saturated humidity. When the cells grew logarithmically, they were spread onto plates, and the cell density was adjusted to 8.0 × 10^4 cells/mL before the cell sap was added into a 96-well plate (200 µL per well). The cells grew adherent for 24 h. After 24 h, 2 µL of two standards, two extracts of medicinal herbs were added to each plate well and incubated for 72 h. Adriamycin was used as the positive control, and the blank control contained 2 µL DMSO. After incubation, 20 μL of 5 mg/mL MTT solution was added, and the plates were incubated for 4 h. The supernatant liquid was removed, and the cells were disrupted with 200 µL of DMSO for 10 min. After the blue crystalline substance was fully dissolved, the absorbance value was measured on a microplate reader with the detection wavelength of 562 nm and the reference wavelength of 630 nm. The IC50 value of each compound was calculated.

Another data set deals with HepG2 cell line. In words: Cytotoxicity assay, MTT method. The data set is classed as cell-based, Human. The procedure:
as §1

The test system of data set [2] is DNA of HepG2 cells. In words: Comet assay, DNA damage. The data set is classed as cell-based, Human. As to conditions: for damage to the DNA of HepG2 cells / tail length compared with blank control group: AAI 50 μM, AAII 131.5 μM; for tail length compared with blank control group: AMH 10 mg/mL, ADS 93 mg/mL, ADM 3.4 μM, Kruskal–Wallis test. The procedure: Cells in the logarithmic growth phase were inoculated in 6-well plates, and the cell density was adjusted to 2.5 × 10^5 cells /mL, 2 mL per well. After 24 h, the experimental group was combined with AAⅠ (50 μM), AAII (131.5 μM), extracts of the AMH (10 mg/mL) and ADS (93 mg/mL), the positive control group was combined with ADM (3.4 μM), and the blank control group were added with the same volume of cell culture solution. After 48 h of culture, the cells were collected. DNA damage was detected according to the operating instructions of comet assay kit. The experiment was repeated 3 times, and 50 cells were selected at each dose in each experiment and analyzed by Comet Assay software (CASP, http://casplab.com/, accessed on 5 October 2022). The mean values of tail DNA percentage, tail length, and tail moment of three experiments were used to express DNA damage. Results one-way ANOVA was used to test the data between groups, and the difference was statistically significant when p < 0.01. Data and statistical results are generated by GraphPad Prism 7 software.

Data set [3] concerns DNA of HepG2 cells. Put plainly: Comet assay, DNA damage. The data set is classed as cell-based, Human. To be noted: HepG2, 48 h; AAI 50 μM, AAII 131.5 μM, AMH 10 mg/mL, ADS 93 mg/mL, ADM 3.4 μM; Kruskal–Wallis test.
For the next data set, the system named is NCI-H187 cell line. Also on record: method as in PMID 25865074, PMID 29098873. As to conditions: cited from earlier work.
In the next data set the test system is A549. More on the design: method as in PMID 25865074, PMID 29098873. To be noted: cited from earlier work.
A further data set concerns MCF7. More on the design: method as in PMID 25865074, PMID 29098873. As to conditions: cited from earlier work.
[4] abbreviates: means ± SD, read-out: IC50 values of compounds, cytotoxic activity.
Where [5] appears, read: HepG2, AAI 50 μM vs AAII 131.5 μM, 48 h.
Setting [6] is: HepG2, AAI 50 μM vs ADS extract 93 mg/mL, 48 h.

With `O=C(O)c1cc2c(c3c1c([N+](=O)[O-])cc1ccc(O)cc13)OCO2` [AAC, aristolochic acid ΙΙΙ a], in data set [1] (setting [4]), the IC50 turned out to be 293.5 ± 0.3 µM.

Turning to `COc1cc(O)cc2c1cc([N+](=O)[O-])c1c(C(=O)O)cc3c(c12)OCO3` [AAD, Aristolochic acid IVa], the “cytotoxicity against HepG2 cell line” value in the data set on HepG2 cell line is “no cytotoxicity”. Moreover, the IC50 in data set [1] (read-out: IC50 values of compounds, cytotoxic activity (symbol)) is greater than 1000 µM.

As for `COc1cccc2c1cc([N+](=O)[O-])c1c(C(=O)O)cc3c(c12)OCO3` [AAI, Aristolochic acid I], in the data set with DNA of HepG2 cells [2] (HepG2, 48 h), the “damage to the DNA of HepG2 cells” value is on record as “obviously caused damage to the DNA” and the “tail length compared with blank control group” value is “significantly higher”. Besides, in the data set on DNA of HepG2 cells [2] (setting [5]), the “tail DNA content, increase relative to AAII” value turned out to be 16 times; the “tail length, increase relative to AAII” value is listed as 12.8 times; the “tail moment, increase relative to AAII group” value is on record as 110 times. Further, in the data set with DNA of HepG2 cells [2] (setting [6]), the “tail DNA content, increase relative to ADS” value is on record as 4.7 times; the “tail length, increase relative to ADS” value is reported as 6.8 times; the “tail moment, increase relative to ADS group” value is reported as “approximately 70 times”. Further, in the data set with DNA of HepG2 cells [2] (HepG2, at 50 μM, 48 h), the “damage to cellular DNA, TDNA” value is recorded as 40–95%. Also, the “tail DNA content compared with blank control group” value in the data set on DNA of HepG2 cells [3] is “significant differences”. In addition, the “cytotoxicity against HepG2 cell line” value with HepG2 cell line is listed as “moderate cytotoxicity”. Also, the IC50 at 72 h in data set [1] (setting [4]) was determined as 50.2 ± 0.2 µM.

Take `O=C(O)c1cc2c(c3c1c([N+](=O)[O-])cc1ccccc13)OCO2` [AAII]: in the data set on DNA of HepG2 cells [2] (HepG2, 48 h), the “damage to cellular DNA, TDNA” value is reported as 5–20% and the “damage to the DNA of HepG2 cells” value is on record as “no obvious damage”. In addition, the “tail DNA content compared with blank control group” value with DNA of HepG2 cells [3] was “no significance”. For the same compound, the IC50 in data set [1] (setting [4]) was 131.4 ± 0.1 µM.

With `COc1cc2c3c(cc4ccccc4c3c1OC)NC2=O` [AL-BII], in the data set on NCI-H187 cell line, the “cytotoxicity against NCI-H187 cell line” value is recorded as “selective cytotoxicity”. Further, the “cytotoxicity against A549” value in the data set on A549 is “no cytotoxicity”. In addition, the “cytotoxicity against MCF7” value in the data set on MCF7 is reported as “no cytotoxicity”. Moreover, the “cytotoxicity against HepG2 cell line” value with HepG2 cell line is given as “most potent cytotoxicity”. Also, in data set [1] (setting [4]), the IC50 turned out to be 0.2 ± 0.1 µM.

Take `COc1cc2c3c(cc4ccccc4c3c1O)NC2=O` [AL-FI]: in data set [1] (setting [4]), the IC50 stood at 417.2 ± 0.2 µM.

`COc1cccc2c1cc1c3c(cc4c(c32)OCO4)C(=O)N1` [AL-I, aristolactam Ι]: the IC50 in data set [1] (setting [4]) turned out to be 135.7 ± 0.3 µM.

For the compound `COc1cccc2c1C(=O)c1c(O)c3c(c(O)c1C2=O)C[C@@](O)(C(=O)CO)C[C@@H]3O[C@H]1C[C@H](N)[C@H](O)[C@H](C)O1` [Extract of ADM, Adriamycin], the “tail length compared with blank control group” value in the data set with DNA of HepG2 cells [2] (HepG2, 48 h) is listed as “significantly higher”. Also, the “tail DNA content compared with blank control group” value with DNA of HepG2 cells [3] was “significant differences”. For the same compound, the IC50 in data set [1] (setting [4]) was 3.1 ± 0.1 µM.
